Results as given in ChEMBL document CHEMBL1126121, “Non-prostanoid thromboxane A2 receptor antagonists with a dibenzoxepin ring system. 1” (J Med Chem, 1992).
“And” between values parts separate entries of the source, which are not always exact repeats. Equal entries are not always repeated.

What was measured:
[1] = tested on: Cavia porcellus; assay: Inhibitory effect of the compounds on U-46619-induced platelet aggregation ex vivo in guinea pig at the dose of 10 mg/kg 4 hr after oral administration; assay type: functional
[2] = tested on: Cavia porcellus; assay: Compound was tested ex vivo for it''s inhibition of U-46619 induced platelet aggregation in the guinea pig after 2 hr of administration at dose 10 mg/kg; assay type: functional
[3] = tested on: Cavia porcellus; assay: Compound was tested ex vivo for it''s inhibition of U-46619 induced platelet aggregation in the guinea pig after 4 hr of administration at dose 10 mg/kg; assay type: functional
[4] = target: T1, Thromboxane A2 receptor (Homo sapiens) (UniProt P21731); assay: Binding affinity for thromboxane A2 receptor by measuring its ability to displace [3H]U-46619 from guinea pig platelets at 0.1 uM; conditions: Cavia porcellus, target entry is the homologue from another species
T1 sequence (whole entry): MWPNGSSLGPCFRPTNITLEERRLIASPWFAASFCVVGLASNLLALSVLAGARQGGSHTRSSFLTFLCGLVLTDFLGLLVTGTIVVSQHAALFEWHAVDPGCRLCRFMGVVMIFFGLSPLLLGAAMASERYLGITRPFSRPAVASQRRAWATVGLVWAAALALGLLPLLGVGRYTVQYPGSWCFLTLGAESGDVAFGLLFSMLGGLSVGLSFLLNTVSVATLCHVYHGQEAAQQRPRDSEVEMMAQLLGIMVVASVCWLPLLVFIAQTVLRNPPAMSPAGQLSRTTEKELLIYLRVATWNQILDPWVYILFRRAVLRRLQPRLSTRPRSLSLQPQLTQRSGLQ

[5] = tested on: Thromboxane-A synthase (Bos taurus); assay: Inhibitory effect against thromboxane A2 synthase from bovine platelets at 10 uM concentration
[6] = target: T1, Thromboxane A2 receptor (Homo sapiens); assay: Inhibitory effect against binding thromboxane A2 receptor on guinea pig platelets using [3H]U-46619 as radioligand at 1 uM concentration; conditions: Cavia porcellus, target entry is the homologue from another species
[7] = tested on: Cavia porcellus; assay: Inhibitory effect of the compounds on U-46619-induced platelet aggregation ex vivo in guinea pig at the dose of 10 mg/kg 2 hr after oral administration; assay type: functional
[8] = target: T2, Thromboxane-A synthase (Homo sapiens) (UniProt P24557); assay: Inhibitory activity against thromboxane A2 synthase obtained from bovine platelet microsomes at 10 uM; conditions: Bos taurus, target entry is the homologue from another species
T2 sequence (whole entry): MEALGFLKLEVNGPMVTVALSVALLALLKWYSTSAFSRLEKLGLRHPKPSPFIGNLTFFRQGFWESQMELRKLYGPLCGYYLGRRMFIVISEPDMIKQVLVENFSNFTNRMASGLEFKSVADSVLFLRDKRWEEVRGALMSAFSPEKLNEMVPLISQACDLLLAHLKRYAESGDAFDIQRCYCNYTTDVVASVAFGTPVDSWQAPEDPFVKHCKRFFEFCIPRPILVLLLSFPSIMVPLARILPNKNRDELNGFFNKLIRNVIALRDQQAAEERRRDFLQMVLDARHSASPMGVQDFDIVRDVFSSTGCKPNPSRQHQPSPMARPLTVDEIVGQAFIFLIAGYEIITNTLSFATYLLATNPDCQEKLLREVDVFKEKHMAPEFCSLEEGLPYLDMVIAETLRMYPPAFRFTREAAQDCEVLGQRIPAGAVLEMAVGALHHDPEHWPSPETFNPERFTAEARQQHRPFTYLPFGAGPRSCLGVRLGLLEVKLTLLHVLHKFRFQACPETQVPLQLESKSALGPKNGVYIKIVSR

[9] = target: T1, Thromboxane A2 receptor (Homo sapiens); assay: Binding affinity for thromboxane A2 receptor by measuring ability to displace [3H]U-46619 from guinea pig platelets at 1 uM; conditions: Cavia porcellus, target entry is the homologue from another species
[10] = target: T1, Thromboxane A2 receptor (Homo sapiens); assay: Compound was tested for its binding affinity at TXA2 receptor by measuring its ability to displace [3H]U-46619 from guinea pig platelets at 1 uM; conditions: Cavia porcellus, target entry is the homologue from another species
[11] = tested on: Cavia porcellus; assay: Inhibitory effect of the compounds on U-46619-induced platelet aggregation ex vivo in guinea pig at the dose of 30 mg/kg 2 hr after oral administration; assay type: functional
[12] = tested on: Cavia porcellus; assay: Compound was tested ex vivo for it's inhibition of U-46619 induced platelet aggregation in the guinea pig after 4 hr of administration at dose 30 mg/kg; assay type: functional
[13] = target: T1, Thromboxane A2 receptor (Homo sapiens); assay: Compound was tested for its binding affinity at Thromboxane A2 receptor by measuring its ability to displace [3H]-U-46,619 from guinea pig platelets at 1 uM; conditions: Cavia porcellus, target entry is the homologue from another species
[14] = tested on: Cavia porcellus; assay: Compound was tested ex vivo for it's inhibition of U-46619 induced platelet aggregation in the guinea pig after 4 hr of administration at dose 100 mg/kg; assay type: functional
[15] = tested on: Cavia porcellus; assay: Compound was tested ex vivo for it's inhibition of U-46619 induced platelet aggregation in the guinea pig after 2 hr of administration at dose 100 mg/kg; assay type: functional
[16] = tested on: Cavia porcellus; assay: Compound was tested ex vivo for it's inhibition of U-46619 induced platelet aggregation in the guinea pig after 2 hr of administration at dose 30 mg/kg; assay type: functional
[17] = target: T1, Thromboxane A2 receptor (Homo sapiens); assay: Compound was tested for its binding affinity at Thromboxane A2 receptor by measuring its ability to displace [3H]U-46619 from guinea pig platelets; conditions: Cavia porcellus; target entry is the homologue from another species; concentration not given here
[18] = tested on: Cavia porcellus; assay: Inhibitory effect of the compounds on U-46619-induced platelet aggregation ex vivo in guinea pig at the dose of 100 mg/kg 2 hr after oral administration; assay type: functional
[19] = tested on: Cavia porcellus; assay: Inhibitory effect of the compounds on U-46619-induced platelet aggregation ex vivo in guinea pig at the dose of 100 mg/kg 4 hr after oral administration; assay type: functional
[20] = tested on: Cavia porcellus; assay: Compound was tested ex vivo for it's inhibition of U-46619 induced platelet aggregation in the guinea pig after 2 hr of administration at dose 10 mg/kg; assay type: functional
[21] = tested on: Cavia porcellus; assay: Inhibitory effect of the compounds on U-46619-induced platelet aggregation ex vivo in guinea pig at the dose of 10 mg/kg 7 hr oral after administration; assay type: functional
[22] = tested on: Cavia porcellus; assay: Compound was tested ex vivo for it''s inhibition of U-46619 induced platelet aggregation in the guinea pig after 7 hr of administration at dose 10 mg/kg; assay type: functional
[23] = tested on: Cavia porcellus; assay: Compound was tested ex vivo for it's inhibition of U-46619 induced platelet aggregation in the guinea pig after 4 hr of administration at dose 10 mg/kg; assay type: functional
[24] = tested on: Cavia porcellus; assay: Compound was tested ex vivo for it''s inhibition of U-46619 induced platelet aggregation in the guinea pig ex vivo after 7 hr of administration at dose 10 mg/kg; assay type: functional

Row | SMILES | Platelet aggregation [1] [%] | inhibition [4] [%] | inhibition [5] [%] | inhibition [6] | Platelet aggregation [7] [%] | inhibition [8] [%] | inhibition [9] [%] | Aggregation [20] [%] | Aggregation [23] [%] | further results
1 | O=C(NCCSC1c2ccccc2COc2ccc(C(=O)O)cc21)OCc1ccccc1 (stereo unspecified) | 57.3 | 79 | 56 | 96% | 8.7 | 56 | 96 | – | – | Aggregation [2]: 8.7%; Aggregation [3]: 57.3%
2 | O=C(O)c1ccc2c(c1)C(SCCNS(=O)(=O)c1ccc3ccccc3c1)c1ccccc1CO2 (stereo unspecified) | – | 77 | 38 | 95% | – | 38 | – | – | – | pInhibition [10]: 95%
3 | O=C(O)COc1ccc(CCNS(=O)(=O)c2ccccc2)cc1 [SULOTROBAN] | 87 | – | – | 31% | – | – | – | – | – | Platelet aggregation [11]: 28%; Aggregation [12]: 87%; inhibition [13]: 31%; Aggregation [14]: 57%; Aggregation [15]: 12.7%; Aggregation [16]: 28%; inhibition [17]: -5%; Platelet aggregation [18]: 12.7%; Platelet aggregation [19]: 57%
4 | O=C(O)c1ccc2c(c1)C(SCCNS(=O)(=O)c1ccccc1)c1ccccc1CO2 (stereo unspecified) | 4.5 | 72 | – | 92% and 84% | 11.8 | – | 92 | 11.8 | 4.5 | Platelet aggregation [21]: 12.3%; Aggregation [22]: 12.3%
5 | O=C(O)c1ccc2c(c1)C(SCCNS(=O)(=O)/C=C/c1ccccc1)c1ccccc1CO2 (racemic) [listing 1 of 2 here] | – | – | – | 97% | – | – | – | – | – | inhibition [13]: 97%; inhibition [17]: 92%
6 | O=C(O)c1ccc2c(c1)C(SCCNS(=O)(=O)/C=C/c1ccccc1)c1ccccc1CO2 (racemic) [listing 2 of 2 here] | – | – | – | – | – | – | – | 0 | 2.3 | Aggregation [24]: 10.7%
7 | O=C(O)c1ccc2c(c1)C(SCCNS(=O)(=O)c1cccs1)c1ccccc1CO2 (stereo unspecified) | 2.1 | 84 | 33 | 99% | 14.3 | 33 | 99 | 14.3 | 2.1 | Aggregation [24]: 12.3%; Platelet aggregation [21]: 12.3%
